# Laboratory results from ChEMBL document CHEMBL4387732, “Capsaicin-like analogue induced selective apoptosis in A2058 melanoma cells: Design, synthesis and molecular modeling” (Bioorg Med Chem, 2019).
# The source made the active and inactive calls. The rule behind the calls is not given here.
# Columns and labels:
# [1] = test system: SK-MEL-25; assay: Cytotoxicity against human SK-MEL-25 cells assessed as decrease in cell viability incubated for 24 hrs by MTT assay; format: functional, cell-based; settings: SK-MEL-25, 24 h
# [2] = test system: A2058; assay: Cytotoxicity against human A2058 cells assessed as decrease in cell viability incubated for 24 hrs by MTT assay; format: functional, cell-based; settings: A2058, 24 h
# [3] = test system: U-87 MG; assay: Cytotoxicity against human U87 cells assessed as decrease in cell viability incubated for 24 hrs by MTT assay; format: functional, cell-based, U-87MG ATCC
# [4] = test system: B16-F10; assay: Cytotoxicity against mouse B16F10 cells assessed as decrease in cell viability incubated for 24 hrs by MTT assay; format: functional, cell-based; settings: B16-F10, 24 h
# [5] = Cytotoxicity against human T75 cells assessed as decrease in cell viability incubated for 24 hrs by MTT assay; format: cell-based
# [6] = test system: HEK-293T; assay: Effect on Ca2+ transport in human HEK293T cells incubated for 5 mins by calcium-5 fluorescence dye-based FLIPR assay; format: functional, cell-based
# [7] = target: T1, Transient receptor potential cation channel subfamily V member 6 (Homo sapiens) (UniProt Q9H1D0); assay: Agonist activity at human TRPV6 expressed in human HEK293 cells assessed as increase in Ca2+ transport at 100 nM incubated for 5 mins by calcium-5 fluorescence dye-based FLIPR assay; format: cell-based
# T1 sequence (whole entry): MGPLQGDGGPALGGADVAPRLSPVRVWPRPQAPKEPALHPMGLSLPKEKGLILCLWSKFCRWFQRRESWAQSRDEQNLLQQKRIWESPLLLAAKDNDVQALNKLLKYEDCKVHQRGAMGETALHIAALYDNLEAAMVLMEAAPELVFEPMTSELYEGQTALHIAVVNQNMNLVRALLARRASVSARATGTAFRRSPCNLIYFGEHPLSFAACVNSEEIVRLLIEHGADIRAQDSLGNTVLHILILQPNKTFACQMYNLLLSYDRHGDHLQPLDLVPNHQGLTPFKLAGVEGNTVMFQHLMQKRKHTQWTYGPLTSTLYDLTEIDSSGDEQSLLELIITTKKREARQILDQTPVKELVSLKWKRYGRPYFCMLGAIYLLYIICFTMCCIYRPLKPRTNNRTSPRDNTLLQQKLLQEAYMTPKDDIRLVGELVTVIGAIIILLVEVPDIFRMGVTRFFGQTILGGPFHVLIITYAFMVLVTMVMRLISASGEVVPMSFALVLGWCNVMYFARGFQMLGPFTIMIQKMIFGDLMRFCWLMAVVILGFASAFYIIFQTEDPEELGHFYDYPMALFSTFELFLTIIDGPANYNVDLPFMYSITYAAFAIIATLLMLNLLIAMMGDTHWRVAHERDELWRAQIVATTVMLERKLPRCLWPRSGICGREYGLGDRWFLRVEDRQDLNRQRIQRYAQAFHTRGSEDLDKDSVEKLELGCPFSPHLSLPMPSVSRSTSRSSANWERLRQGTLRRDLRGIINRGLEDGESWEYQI
# [8] = test system: Mus musculus; assay: In-vivo activation of TRPV1 receptor in Swiss mouse assessed as induction of nociception by measuring paw flinching/licking response at 5.2 nmol/paw administrated via intraplantar route and measured for first 5 mins post treatment; format: functional, organism-based
# [9] = Selectivity index, ratio of IC50 for human T75 cells to IC50 for human A2058 cells
# [10] = test system: MCF7; assay: Cytotoxicity against human MCF7 cells assessed as decrease in cell viability incubated for 24 hrs by MTT assay; format: functional, cell-based
# [11] = test system: HeLa; assay: Cytotoxicity against human HeLa cells assessed as decrease in cell viability incubated for 24 hrs by MTT assay; format: functional, cell-based
# [12] = test system: B16-F10; assay: Cell cycle arrest in mouse B16F10 cells assessed as variation in subG0/G1 population at 12.5 to 50 uM incubated for 24 hrs by propidium iodide staining-based flow cytometric analysis; format: functional
# [13] = test system: A2058; assay: Cell cycle arrest in human A2058 cells assessed as accumulation of cells in subG0/G1 phase at 12.5 to 50 uM incubated for 24 hrs by propidium iodide staining-based flow cytometric analysis; format: functional
# [14] = test system: B16-F10; assay: Cell cycle arrest in mouse B16F10 cells assessed as increase the G0/G1 phase incubated for 24 hrs by propidium iodide staining-based flow cytometric analysis; format: functional
# [15] = test system: A2058; assay: Induction of apoptosis in human A2058 cells assessed as increase in cleaved caspase 3 expression level incubated for 6 hrs by Western blot analysis; format: functional, cell-based
# [16] = test system: A2058; assay: Cytotoxicity against human A2058 cells assessed as alteration in cell morphology incubated for 24 hrs by microscopic method; format: functional, cell-based
# [17] = test system: A2058; assay: Cytotoxicity against human A2058 cells assessed as loss of cell adhesion incubated for 24 hrs by microscopic method; format: functional, cell-based
# [18] = test system: A2058; assay: Cytotoxicity against human A2058 cells assessed as induction of withdrawal of cytoplasm incubated for 24 hrs by microscopic method; format: functional, cell-based
# [19] = test system: A2058; assay: Cytotoxicity against human A2058 cells assessed as loss of refringence incubated for 24 hrs by microscopic method; format: functional, cell-based
# [20] = test system: A2058; assay: Cytotoxicity against human A2058 cells assessed as marked formation of apoptotic bodies incubated for 24 hrs by microscopic method; format: functional, cell-based
# [21] = test system: B16-F10; assay: Cytotoxicity against mouse B16F10 cells assessed as cell cycle arrest incubated for 24 hrs by microscopic method; format: functional, cell-based
# [22] = test system: A2058; assay: Cell cycle arrest in human A2058 cells assessed as accumulation of cells in G0/G1 phase incubated for 24 hrs by propidium iodide staining-based flow cytometric analysis; format: functional
# [23] = test system: A2058; assay: Induction of apoptosis in human A2058 cells assessed as ratio of beta-actin to B-RAF expression incubated for 1 hrs by Western blot analysis; format: functional
# [24] = test system: A2058; assay: Induction of apoptosis in human A2058 cells assessed as ratio of beta-actin to B-RAF expression incubated for 3 hrs by Western blot analysis; format: functional
# [25] = test system: A2058; assay: Induction of apoptosis in human A2058 cells assessed as ratio of beta-actin to B-RAF expression incubated for 6 hrs by Western blot analysis; format: functional
# [26] = test system: A2058; assay: Induction of apoptosis in human A2058 cells assessed as ratio of beta-actin to C-RAF expression incubated for 1 hrs by Western blot analysis; format: functional
# [27] = test system: A2058; assay: Induction of apoptosis in human A2058 cells assessed as ratio of beta-actin to C-RAF expression incubated for 3 hrs by Western blot analysis; format: functional
# [28] = test system: A2058; assay: Induction of apoptosis in human A2058 cells assessed as ratio of beta-actin to C-RAF expression incubated for 6 hrs by Western blot analysis; format: functional
# [29] = test system: A2058; assay: Induction of apoptosis in human A2058 cells assessed as ratio of beta-actin to BCL-XL expression incubated for 1 hrs by Western blot analysis; format: functional
# [30] = test system: A2058; assay: Induction of apoptosis in human A2058 cells assessed as ratio of beta-actin to BCL-XL expression incubated for 3 hrs by Western blot analysis; format: functional
# [31] = test system: A2058; assay: Induction of apoptosis in human A2058 cells assessed as ratio of beta-actin to BCL-XL expression incubated for 6 hrs by Western blot analysis; format: functional
# [32] = test system: A2058; assay: Induction of apoptosis in human A2058 cells assessed as ratio of beta-actin to caspase 3 expression incubated for 1 hrs by Western blot analysis; format: functional
# [33] = test system: A2058; assay: Induction of apoptosis in human A2058 cells assessed as ratio of beta-actin to caspase 3 expression incubated for 3 hrs by Western blot analysis; format: functional
# [34] = test system: A2058; assay: Induction of apoptosis in human A2058 cells assessed as ratio of beta-actin to caspase 3 expression incubated for 6 hrs by Western blot analysis; format: functional
# [35] = target: T2, Transient receptor potential cation channel subfamily V member 1 (Homo sapiens, UniProt Q8NER1); assay: Agonist activity at human TRPV1 expressed in HEK293T cells assessed as increase in Ca2+ transport incubated for 5 mins by calcium-5 fluorescence dye-based FLIPR assay; format: cell-based
# T2 sequence (Q8NER1 whole entry): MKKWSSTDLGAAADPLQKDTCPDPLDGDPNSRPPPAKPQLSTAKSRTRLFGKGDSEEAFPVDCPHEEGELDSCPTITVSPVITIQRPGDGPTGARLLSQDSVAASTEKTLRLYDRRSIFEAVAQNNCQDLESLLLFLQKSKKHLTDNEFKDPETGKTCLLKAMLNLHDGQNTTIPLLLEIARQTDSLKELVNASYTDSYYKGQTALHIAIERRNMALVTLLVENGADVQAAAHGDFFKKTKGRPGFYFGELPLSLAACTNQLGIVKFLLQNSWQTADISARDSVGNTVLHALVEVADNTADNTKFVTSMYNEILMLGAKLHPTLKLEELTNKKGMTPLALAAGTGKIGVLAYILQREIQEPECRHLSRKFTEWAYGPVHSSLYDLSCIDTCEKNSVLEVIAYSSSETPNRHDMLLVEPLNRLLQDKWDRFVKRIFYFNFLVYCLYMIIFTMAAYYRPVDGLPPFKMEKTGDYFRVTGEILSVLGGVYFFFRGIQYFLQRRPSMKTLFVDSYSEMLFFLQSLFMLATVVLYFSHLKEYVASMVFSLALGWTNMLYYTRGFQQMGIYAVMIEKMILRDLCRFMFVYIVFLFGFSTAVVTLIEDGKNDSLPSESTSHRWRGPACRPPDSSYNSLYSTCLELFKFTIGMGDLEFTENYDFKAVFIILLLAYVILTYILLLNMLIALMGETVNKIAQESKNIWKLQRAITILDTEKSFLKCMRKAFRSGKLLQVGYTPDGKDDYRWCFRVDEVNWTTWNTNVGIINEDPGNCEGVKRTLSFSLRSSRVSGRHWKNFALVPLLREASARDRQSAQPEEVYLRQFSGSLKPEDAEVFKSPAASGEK
# [36] = target: T2, Transient receptor potential cation channel subfamily V member 1; assay: Agonist activity at human TRPV1 expressed in human HEK293T cells assessed as increase in Ca2+ transport at 10 uM incubated for 5 mins in presence of TRPV1 antagonist capsazepine by calcium-5 fluorescence dye-based FLIPR assay; format: cell-based
# [37] = target: T1, Transient receptor potential cation channel subfamily V member 6 (Homo sapiens); assay: Agonist activity at human TRPV6 expressed in human HEK293 cells assessed as increase in Ca2+ transport at 50 uM incubated for 5 mins by calcium-5 fluorescence dye-based FLIPR assay; format: cell-based
# [38] = target: T1, Transient receptor potential cation channel subfamily V member 6 (Homo sapiens); assay: Antagonist activity at human TRPV6 expressed in human HEK293 cells assessed as reduction in Ca2+ transport at 2.5 uM incubated for 5 mins by calcium-5 fluorescence dye-based FLIPR assay; format: cell-based
smiles,measurement,setting,value
COc1cc(CNC(=O)CCCC/C=C/C(C)C)ccc1O [CAPSAICIN],IC50,[1],> 100 µM
same,IC50,[2],> 100 µM
same,IC50,[3],> 100 µM
same,IC50,[4],> 100 µM
same,IC50,[5],> 100 µM
same,Activity,[6],inactive
same,Activity,[7],inactive
same,Activity,[8],Active
COc1cc(CNC(=O)Nc2ccc([N+](=O)[O-])cc2)ccc1O,Ratio IC50,[9],>1.1
same,IC50,[1],98.7 µM
same,IC50,[2],98.2 µM
same,Activity,[10],inactive
same,Activity,[11],inactive
same,IC50,[3],98.5 µM
same,IC50,[4],> 100 µM
same,IC50,[5],> 100 µM
COc1ccc(NC(=O)NCc2ccc(O)c(OC)c2)cc1,Ratio IC50,[9],>1.08
same,IC50,[1],91.8 µM
same,IC50,[2],92.5 µM
same,Activity,[10],inactive
same,Activity,[11],inactive
same,IC50,[3],> 100 µM
same,IC50,[4],> 100 µM
same,IC50,[5],> 100 µM
COc1cc(CNC(=O)Nc2ccc(Cl)cc2)ccc1O,Ratio IC50,[9],>1.18
same,IC50,[1],90.5 µM
same,IC50,[2],84.5 µM
same,Activity,[10],inactive
same,Activity,[11],inactive
same,IC50,[3],92.5 µM
same,IC50,[4],> 100 µM
same,IC50,[5],> 100 µM
CCCCCCNC(=S)NCc1ccc2c(c1)OCO2,Activity,[12],inactive
same,Ratio IC50,[9],>1.8
same,Activity,[13],Active
same,Activity,[14],Dose-dependent effect
same,Activity,[15],Active
same,IC50,[1],67.2 µM
same,IC50,[2],55.2 µM
same,Activity,[10],inactive
same,Activity,[11],inactive
same,IC50,[3],87 µM
same,IC50,[4],> 100 µM
same,IC50,[5],> 100 µM
same,Activity,[16],Active
same,Activity,[17],Active
same,Activity,[18],Active
same,Activity,[19],Active
same,Activity,[20],Active
same,Activity,[21],Active
same,Activity,[22],Dose-dependent effect
same,Ratio,[23],0.45
same,Ratio,[24],0.48
same,Ratio,[25],0.52
same,Ratio,[26],0.6
same,Ratio,[27],0.49
same,Ratio,[28],0.32
same,Ratio,[29],1.22
same,Ratio,[30],1.2
same,Ratio,[31],0.6
same,Ratio,[32],1.18
same,Ratio,[33],1.11
same,Ratio,[34],0.6
same,EC50,[35],4.62 µM
same,Activity,[6],inactive
same,Activity,[36],inactive
same,Activity,[37],inactive
same,Activity,[8],inactive
Cc1cccc([C@H]2CC[C@@H](N3CCN(c4cccnc4)CC3)CC2)c1,inhibition,[38],Active
